Assay results reported in the supplement of paper PMC12463676, “Small-molecule dissolution of stress granules by redox modulation benefits ALS models” (Nature Chemical Biology, 2025).

Experiments:
[1] = compound: NC(=O)CCCCC1CCSS1 [lipoamide]; assay: thermal stability z-score vs DMSO; higher = more thermally stabilized by treatment; conditions: HeLa, lipoamide concentration 100 µM
Description: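 Cellular thermal proteome profiling in HeLa cells. Cells were treated with 100 µM lipoamide for 1 h, with or without 1 mM arsenate for a further 1 h, then heated to ten temperatures (37-66.3 °C), and soluble protein was quantified by TMT mass spectrometry relative to 0.1% DMSO controls. The thermal stability score (sum of log2 fold changes minus the abundance score) was transformed to a z-score; mean of n = 3 experiments.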

[2] = compound: O=[As]([O-])(O)O.[K+] [potassium arsenate]; assay: as above; conditions: HeLa; arsenate concentration 1 mM
Description: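 Cellular thermal proteome profiling in HeLa cells treated with 1 mM arsenate for 1 h (DMSO pretreatment), heated to ten temperatures (37-66.3 °C). Soluble protein was quantified by TMT mass spectrometry relative to DMSO controls; the thermal stability score was transformed to a z-score; mean of n = 3 experiments.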

[3] = arsenate co-treatment: 1 mM arsenate 1 h
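Note: each temperature applied for 3 min, abundance score taken as mean log2 fold change at the two lowest temperatures, z-score obtained by mean subtraction and division by SD.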

UniProt P53597, sequence (P53597 whole entry): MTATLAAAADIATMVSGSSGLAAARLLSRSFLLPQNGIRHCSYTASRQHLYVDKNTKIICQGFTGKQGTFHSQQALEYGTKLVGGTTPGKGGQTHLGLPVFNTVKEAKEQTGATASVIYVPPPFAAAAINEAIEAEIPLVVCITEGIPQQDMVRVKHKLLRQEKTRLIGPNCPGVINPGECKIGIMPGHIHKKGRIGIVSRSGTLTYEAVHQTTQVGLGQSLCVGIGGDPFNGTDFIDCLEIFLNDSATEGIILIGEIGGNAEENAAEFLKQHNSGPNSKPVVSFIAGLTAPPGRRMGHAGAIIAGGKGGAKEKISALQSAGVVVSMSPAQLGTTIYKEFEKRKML
UniProt P18074, sequence (P18074 whole entry): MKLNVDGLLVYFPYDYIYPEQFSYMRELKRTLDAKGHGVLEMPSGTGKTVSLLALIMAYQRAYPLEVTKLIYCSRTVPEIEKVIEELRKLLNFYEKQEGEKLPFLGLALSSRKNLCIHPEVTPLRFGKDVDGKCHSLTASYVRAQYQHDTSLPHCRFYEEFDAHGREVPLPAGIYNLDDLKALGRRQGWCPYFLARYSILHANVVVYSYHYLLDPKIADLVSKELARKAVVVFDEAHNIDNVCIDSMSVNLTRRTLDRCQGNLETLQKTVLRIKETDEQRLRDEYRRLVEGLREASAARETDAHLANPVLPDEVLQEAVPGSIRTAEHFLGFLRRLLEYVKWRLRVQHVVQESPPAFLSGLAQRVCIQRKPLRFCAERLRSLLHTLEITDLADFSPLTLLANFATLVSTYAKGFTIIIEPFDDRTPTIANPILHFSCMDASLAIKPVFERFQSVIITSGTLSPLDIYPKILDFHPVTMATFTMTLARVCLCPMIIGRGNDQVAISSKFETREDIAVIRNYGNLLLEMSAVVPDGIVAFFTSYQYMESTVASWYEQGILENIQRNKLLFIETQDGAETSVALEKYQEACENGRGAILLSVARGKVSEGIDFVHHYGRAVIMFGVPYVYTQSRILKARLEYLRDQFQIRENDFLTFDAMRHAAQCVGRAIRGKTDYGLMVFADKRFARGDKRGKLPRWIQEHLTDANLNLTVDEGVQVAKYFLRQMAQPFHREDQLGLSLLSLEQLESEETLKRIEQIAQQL
UniProt Q8TD19, sequence (Q8TD19 whole entry): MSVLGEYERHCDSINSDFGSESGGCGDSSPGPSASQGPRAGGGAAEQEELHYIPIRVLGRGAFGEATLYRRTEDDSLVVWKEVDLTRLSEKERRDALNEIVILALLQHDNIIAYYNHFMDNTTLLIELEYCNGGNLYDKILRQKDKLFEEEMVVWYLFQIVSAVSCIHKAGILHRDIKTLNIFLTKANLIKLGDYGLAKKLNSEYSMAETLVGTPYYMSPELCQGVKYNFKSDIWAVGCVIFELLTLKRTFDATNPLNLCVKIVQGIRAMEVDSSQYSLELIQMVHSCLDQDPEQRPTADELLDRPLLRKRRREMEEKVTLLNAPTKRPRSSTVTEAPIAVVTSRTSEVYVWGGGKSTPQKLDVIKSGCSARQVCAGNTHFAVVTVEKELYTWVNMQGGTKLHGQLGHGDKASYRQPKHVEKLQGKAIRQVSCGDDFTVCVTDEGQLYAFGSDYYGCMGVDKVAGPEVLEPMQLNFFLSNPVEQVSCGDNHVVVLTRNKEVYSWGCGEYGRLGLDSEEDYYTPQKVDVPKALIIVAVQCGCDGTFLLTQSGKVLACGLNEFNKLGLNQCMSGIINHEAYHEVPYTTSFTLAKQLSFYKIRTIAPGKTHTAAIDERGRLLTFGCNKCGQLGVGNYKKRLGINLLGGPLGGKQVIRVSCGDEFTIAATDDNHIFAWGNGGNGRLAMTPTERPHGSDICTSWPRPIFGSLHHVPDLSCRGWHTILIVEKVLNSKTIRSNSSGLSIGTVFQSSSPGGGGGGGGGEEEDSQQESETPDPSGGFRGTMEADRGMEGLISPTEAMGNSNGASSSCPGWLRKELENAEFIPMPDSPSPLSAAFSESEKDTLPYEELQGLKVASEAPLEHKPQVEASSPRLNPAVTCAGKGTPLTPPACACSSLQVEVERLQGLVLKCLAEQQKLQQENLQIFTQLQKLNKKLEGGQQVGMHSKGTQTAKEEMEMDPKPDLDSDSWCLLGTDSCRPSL
UniProt P01034, sequence (P01034 whole entry): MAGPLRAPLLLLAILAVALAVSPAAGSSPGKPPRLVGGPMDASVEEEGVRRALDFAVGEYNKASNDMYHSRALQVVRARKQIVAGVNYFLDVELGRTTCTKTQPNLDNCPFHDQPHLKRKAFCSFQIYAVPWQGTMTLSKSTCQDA
UniProt P19784, sequence (P19784 whole entry, looked up): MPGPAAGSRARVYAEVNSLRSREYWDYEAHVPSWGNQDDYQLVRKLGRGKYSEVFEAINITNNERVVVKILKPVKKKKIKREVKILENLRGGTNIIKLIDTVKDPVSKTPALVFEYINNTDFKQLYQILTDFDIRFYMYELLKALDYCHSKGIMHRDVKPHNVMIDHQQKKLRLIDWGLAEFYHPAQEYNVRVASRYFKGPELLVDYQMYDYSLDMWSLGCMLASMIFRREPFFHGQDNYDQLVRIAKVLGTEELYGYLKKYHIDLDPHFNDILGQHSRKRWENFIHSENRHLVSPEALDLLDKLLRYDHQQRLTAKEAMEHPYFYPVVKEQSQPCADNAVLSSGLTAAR
UniProt Q9HAB8, sequence (Q9HAB8 whole entry): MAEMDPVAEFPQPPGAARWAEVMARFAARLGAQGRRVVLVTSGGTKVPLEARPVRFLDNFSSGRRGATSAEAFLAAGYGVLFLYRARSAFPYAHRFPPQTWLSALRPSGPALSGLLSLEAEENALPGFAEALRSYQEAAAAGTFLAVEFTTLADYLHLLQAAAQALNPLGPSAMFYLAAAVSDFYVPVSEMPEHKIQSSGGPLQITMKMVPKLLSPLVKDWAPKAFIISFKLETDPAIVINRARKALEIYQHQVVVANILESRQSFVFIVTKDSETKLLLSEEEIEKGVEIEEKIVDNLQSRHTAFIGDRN
UniProt P28799, sequence (P28799 whole entry): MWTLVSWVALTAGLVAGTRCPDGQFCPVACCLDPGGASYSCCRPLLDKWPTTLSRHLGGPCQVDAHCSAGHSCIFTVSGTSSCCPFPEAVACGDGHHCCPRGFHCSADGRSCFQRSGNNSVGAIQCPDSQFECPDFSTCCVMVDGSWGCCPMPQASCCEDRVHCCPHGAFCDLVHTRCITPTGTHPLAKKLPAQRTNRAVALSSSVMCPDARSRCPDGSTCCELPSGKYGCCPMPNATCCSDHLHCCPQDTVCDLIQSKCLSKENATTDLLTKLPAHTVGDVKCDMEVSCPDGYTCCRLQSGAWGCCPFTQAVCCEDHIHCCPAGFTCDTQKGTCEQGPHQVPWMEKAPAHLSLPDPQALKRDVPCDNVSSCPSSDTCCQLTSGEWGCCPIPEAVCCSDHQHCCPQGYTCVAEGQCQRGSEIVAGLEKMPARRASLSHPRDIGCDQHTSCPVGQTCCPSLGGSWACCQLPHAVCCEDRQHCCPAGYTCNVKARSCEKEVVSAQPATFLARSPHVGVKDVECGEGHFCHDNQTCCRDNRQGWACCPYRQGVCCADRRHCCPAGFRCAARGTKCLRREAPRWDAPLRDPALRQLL
UniProt P23528, sequence (P23528 whole entry): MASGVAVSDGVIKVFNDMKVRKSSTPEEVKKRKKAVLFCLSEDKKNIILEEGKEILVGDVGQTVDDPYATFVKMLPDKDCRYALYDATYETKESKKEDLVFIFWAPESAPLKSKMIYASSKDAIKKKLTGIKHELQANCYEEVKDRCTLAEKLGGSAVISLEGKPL
UniProt P27695, sequence (P27695 whole entry): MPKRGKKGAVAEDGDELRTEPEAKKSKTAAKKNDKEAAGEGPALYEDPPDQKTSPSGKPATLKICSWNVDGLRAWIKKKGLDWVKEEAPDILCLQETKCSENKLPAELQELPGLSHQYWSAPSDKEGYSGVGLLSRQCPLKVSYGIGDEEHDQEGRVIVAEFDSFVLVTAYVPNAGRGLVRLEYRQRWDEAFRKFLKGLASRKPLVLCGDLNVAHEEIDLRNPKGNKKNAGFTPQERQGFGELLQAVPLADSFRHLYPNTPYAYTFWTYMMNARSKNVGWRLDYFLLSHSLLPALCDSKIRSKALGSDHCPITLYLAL
UniProt Q9Y2T3, sequence (Q9Y2T3 whole entry): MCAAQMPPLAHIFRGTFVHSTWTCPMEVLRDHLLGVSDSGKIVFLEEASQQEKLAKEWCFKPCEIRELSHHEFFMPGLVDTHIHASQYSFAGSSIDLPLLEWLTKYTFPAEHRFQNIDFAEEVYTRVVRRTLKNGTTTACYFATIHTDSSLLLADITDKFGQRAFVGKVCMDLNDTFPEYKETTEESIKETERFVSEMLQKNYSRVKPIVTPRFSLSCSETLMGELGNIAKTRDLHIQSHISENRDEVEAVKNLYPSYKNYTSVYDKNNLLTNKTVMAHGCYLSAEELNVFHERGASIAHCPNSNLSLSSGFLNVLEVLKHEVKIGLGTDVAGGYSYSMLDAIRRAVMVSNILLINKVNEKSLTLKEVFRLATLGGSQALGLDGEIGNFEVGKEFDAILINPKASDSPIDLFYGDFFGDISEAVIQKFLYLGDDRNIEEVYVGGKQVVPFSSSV
UniProt Q9NVZ3, sequence (Q9NVZ3 whole entry): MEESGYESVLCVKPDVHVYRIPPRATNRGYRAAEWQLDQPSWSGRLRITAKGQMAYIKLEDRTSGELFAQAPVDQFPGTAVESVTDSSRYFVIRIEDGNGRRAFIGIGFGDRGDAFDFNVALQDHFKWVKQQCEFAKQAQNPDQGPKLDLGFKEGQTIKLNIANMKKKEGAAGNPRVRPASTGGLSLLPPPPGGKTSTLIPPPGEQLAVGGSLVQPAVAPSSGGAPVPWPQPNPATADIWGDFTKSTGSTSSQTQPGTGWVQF
UniProt Q15631, sequence (Q15631 whole entry): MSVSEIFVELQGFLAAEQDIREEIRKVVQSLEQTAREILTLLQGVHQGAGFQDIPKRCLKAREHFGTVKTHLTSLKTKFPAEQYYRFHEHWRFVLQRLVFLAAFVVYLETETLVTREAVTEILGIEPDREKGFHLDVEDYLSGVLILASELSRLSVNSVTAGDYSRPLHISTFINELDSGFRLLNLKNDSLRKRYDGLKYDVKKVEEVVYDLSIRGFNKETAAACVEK

| Target | thermal stability z-score [1, 3] | thermal stability z-score ([1]; arsenate co-treatment: none) | thermal stability z-score [2] |
| --- | --- | --- | --- |
| GMEB2 (UniProt Q9UKD1) | 0.0462 | -0.00217 | 0.453 |
| RAB20 (UniProt Q9NX57) | -0.495 | -0.609 | -0.306 |
| DGCR14 (UniProt Q96DF8) | -0.552 | 0.06 | 0.724 |
| AAR2 (UniProt Q9Y312) | -0.223 | 0.408 | -0.912 |
| UQCRC1 (UniProt P31930) | 1.43 | 0.508 | -1.38 |
| GSK3B (UniProt P49841) | -0.109 | -0.308 | 0.326 |
| SPG21 (UniProt Q9NZD8) | -0.161 | 0.136 | 0.634 |
| DCUN1D5 (UniProt Q9BTE7) | -0.0389 | 0.215 | -0.507 |
| ANKRD44 (UniProt Q8N8A2) | -0.00602 | -0.323 | -0.0202 |
| TTC4 (UniProt O95801) | -0.0544 | 0.0918 | -0.14 |
| TANGO6 (UniProt Q9C0B7) | -0.908 | -0.59 | 0.475 |
| EPB41 (UniProt P11171) | -0.424 | -0.262 | -0.0292 |
| WDR45 (UniProt Q9Y484) | -0.0374 | 0.11 | 0.292 |
| PRKRA (UniProt O75569) | -0.115 | -0.0608 | -0.312 |
| NECAP2 (UniProt Q9NVZ3) | 0.16 | -0.169 | -0.238 |
| ERCC2 (UniProt P18074) | 0.408 | 0.701 | 0.0533 |
| GDA (UniProt Q9Y2T3) | 0.244 | 0.292 | 0.0168 |
| RAD21 (UniProt O60216) | 0.628 | 0.377 | 0.297 |
| GRN (UniProt P28799) | 0.151 | -0.477 | 0.505 |
| AIP (UniProt O00170) | -0.0398 | -0.833 | -2.08 |
| CDC6 (UniProt Q99741) | -0.0605 | 0.0639 | -0.258 |
| GATSL2 (UniProt A6NHX0) | 0.724 | -1.44 | -0.242 |
| EBAG9 (UniProt O00559) | 1.73 | 1.25 | 0.749 |
| RAB31 (UniProt Q13636) | 0.762 | 0.822 | 0.42 |

| Target | thermal stability z-score [1, 3] | thermal stability z-score ([1]; arsenate co-treatment: none) | thermal stability z-score [2] |
| --- | --- | --- | --- |
| CST3 (UniProt P01034) | -0.744 | -0.0182 | 0.472 |
| PRKCD (UniProt Q05655) | -0.0378 | 0.235 | -0.477 |
| EIF4G2 (UniProt P78344) | -0.0525 | 0.548 | 0.233 |
| DYNLL2 (UniProt Q96FJ2) | 0.256 | 0.641 | 0.118 |
| NLN (UniProt Q9BYT8) | -0.0488 | 0.000162 | -0.079 |
| RAB5A (UniProt P20339) | -0.751 | -0.744 | -0.695 |
| GMDS (UniProt O60547) | 0.538 | 0.00997 | -0.189 |
| NDUFA6 (UniProt P56556) | -0.164 | -0.00891 | 0.505 |
| ACACA (UniProt Q13085) | -0.534 | -0.289 | 0.153 |
| SCYL3 (UniProt Q8IZE3) | -0.406 | -0.146 | -0.314 |
| WDR12 (UniProt Q9GZL7) | 0.771 | 0.222 | 0.0663 |
| MRS2 (UniProt Q9HD23) | 0.937 | -0.861 | -1.27 |
| TNIP2 (UniProt Q8NFZ5) | 0.0235 | 0.193 | 0.126 |
| RPS11 (UniProt P62280) | 0.621 | 0.352 | -1.11 |
| HERC4 (UniProt Q5GLZ8) | 0.298 | -0.11 | 0.726 |
| APEX1 (UniProt P27695) | -0.558 | 0.406 | -0.345 |
| EIF2AK1 (UniProt Q9BQI3) | -0.867 | 0.23 | 0.583 |
| JPH1 (UniProt Q9HDC5) | 0.0376 | 0.0934 | -0.105 |
| DRG1 (UniProt Q9Y295) | -0.143 | -0.213 | 0.121 |
| CDH10 (UniProt Q9Y6N8) | 0.493 | 0.14 | 1.02 |
| AMDHD2 (UniProt Q9Y303) | 0.0258 | 0.186 | 1.3 |
| CCDC51 (UniProt Q96ER9) | -0.68 | -0.14 | -0.324 |
| AMD1 (UniProt P17707) | 0.96 | 0.512 | -0.105 |
| LYPD3 (UniProt O95274) | -0.113 | 0.0676 | -0.484 |

| Target | thermal stability z-score [1, 3] | thermal stability z-score ([1]; arsenate co-treatment: none) | thermal stability z-score [2] |
| --- | --- | --- | --- |
| RNF113A (UniProt O15541) | -0.642 | -0.0196 | -0.554 |
| MAPKAP1 (UniProt Q9BPZ7) | 0.13 | -0.0501 | 0.0626 |
| WNT5A (UniProt P41221) | -0.888 | -0.379 | 0.214 |
| CSNK2A2 (UniProt P19784) | 0.339 | 0.183 | 0.00534 |
| TEX2 (UniProt Q8IWB9) | 0.11 | -0.0212 | 0.0716 |
| PPCS (UniProt Q9HAB8) | -0.183 | 0.122 | -0.328 |
| G3BP1 (UniProt Q13283) | 0.523 | 0.664 | 0.753 |
| PPA2 (UniProt Q9H2U2) | -1.03 | -0.335 | -0.244 |
| AK3 (UniProt Q9UIJ7) | -0.869 | -1 | -1.11 |
| SERPINB5 (UniProt P36952) | 0.571 | 0.206 | 0.0156 |
| C11ORF98 (UniProt E9PRG8) | -0.688 | -0.534 | -1.91 |
| APOOL (UniProt Q6UXV4) | 0.908 | 0.782 | 0.748 |
| C1ORF122 (UniProt Q6ZSJ8) | 1.07 | 1.18 | 0.28 |
| HMGN5 (UniProt P82970) | -0.141 | -0.134 | -0.172 |
| TAF6 (UniProt P49848) | -0.0822 | -0.089 | 0.318 |
| CTDP1 (UniProt Q9Y5B0) | -0.373 | -0.652 | -0.903 |
| DDX3X (UniProt O00571) | -0.829 | -0.504 | -2.07 |
| MAP3K2 (UniProt Q9Y2U5) | 0.15 | -0.461 | -0.71 |
| TSN (UniProt Q15631) | 1.41 | 1.61 | -0.161 |
| CFL1 (UniProt P23528) | 0.501 | 0.449 | -0.362 |
| TMUB2 (UniProt Q71RG4) | 1.9 | 1.78 | 2.27 |
| NEK9 (UniProt Q8TD19) | -0.25 | -0.366 | 0.719 |
| SUCLG1 (UniProt P53597) | 0.0617 | 0.192 | 0.206 |
